Reference: ChEMBL document CHEMBL1201862, “PubChem BioAssay data set” (2004)
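Following 48 hours of exposure in 96-well plates, responses at five concentrations were used to interpolate endpoints linearly. The concentration for 50% growth inhibition is given as GI50.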 Active and inactive are the calls of the source. Cut-off read from the data, not from the text of the source: active = GI50 up to about 1.1 µM and inactive = higher.

Tests used:
Assay in all cases: DTP human tumour cell line panel, 48 h
MOLT-4 = tested on: MOLT-4
DMS-114 = tested on: DMS-114
U-251 = tested on: U-251
SF-539 = tested on: SF-539
UACC-257 = tested on: UACC-257
RPMI-8226 = tested on: RPMI-8226
NCI-H460 = tested on: NCI-H460
TK-10 = tested on: TK-10
DLD-1 = tested on: DLD-1
XF498 = tested on: XF498
SW-620 = tested on: SW-620
COLO 205 = tested on: COLO 205
SF-295 = tested on: SF-295
DMS-273 = tested on: DMS-273
CAKI-1 = tested on: CAKI-1
ACHN = tested on: ACHN
SN12C = tested on: SN12C
IGROV-1 = tested on: IGROV-1
HOP-18 = tested on: HOP-18
RXF 393 = tested on: RXF 393
K562 = tested on: K562
SK-MEL-28 = tested on: SK-MEL-28
CCRF-CEM = tested on: CCRF-CEM
EKVX = tested on: EKVX
SK-OV-3 = tested on: SK-OV-3
HCC 2998 = tested on: HCC 2998
SK-MEL-5 = tested on: SK-MEL-5
SF-268 = tested on: SF-268
OVCAR-3 = tested on: OVCAR-3
Malme-3M = tested on: Malme-3M
SK-MEL-2 = tested on: SK-MEL-2
KM12 = tested on: KM12
KM-20L2 = tested on: KM-20L2
HL-60 = tested on: HL-60
UACC-62 = tested on: UACC-62
UO-31 = tested on: UO-31
NCI-H23 = tested on: NCI-H23
786-0 = tested on: 786-0
LXFL 529 = tested on: LXFL 529
SNB-78 = tested on: SNB-78
A549 = tested on: A549
A498 = tested on: A498
HCT-15 = tested on: HCT-15
HCT-116 = tested on: HCT-116
SNB-19 = tested on: SNB-19
OVCAR-4 = tested on: OVCAR-4
M19-MEL = tested on: M19-MEL
SNB-75 = tested on: SNB-75
HOP-62 = tested on: HOP-62
NCI-H522 = tested on: NCI-H522
M14 = tested on: M14
OVCAR-8 = tested on: OVCAR-8

## NC1CCCCC1.O=C(O)C1(P(=O)(O)O)CC1
MOLT-4
  GI50: > 100 µM (inactive)
DMS-114
  GI50: > 100 µM (inactive)
U-251
  GI50: > 100 µM (inactive)
SF-539
  GI50: > 100 µM (inactive)
UACC-257
  GI50: > 100 µM (inactive)
RPMI-8226
  GI50: > 100 µM (inactive)
NCI-H460
  GI50: > 100 µM (inactive)
TK-10
  GI50: > 100 µM (inactive)
DLD-1
  GI50: > 100 µM (inactive)
XF498
  GI50: > 100 µM (inactive)
SW-620
  GI50: > 100 µM (inactive)
COLO 205
  GI50: > 100 µM (inactive)
SF-295
  GI50: > 100 µM (inactive)
DMS-273
  GI50: > 100 µM (inactive)
CAKI-1
  GI50: > 100 µM (inactive)
ACHN
  GI50: > 100 µM (inactive)
SN12C
  GI50: > 100 µM (inactive)
IGROV-1
  GI50: > 100 µM (inactive)
HOP-18
  GI50: > 100 µM (inactive)
RXF 393
  GI50: > 100 µM (inactive)
K562
  GI50: > 100 µM (inactive)
SK-MEL-28
  GI50: > 100 µM (inactive)
CCRF-CEM
  GI50: > 100 µM (inactive)
EKVX
  GI50: > 100 µM (inactive)
SK-OV-3
  GI50: > 100 µM (inactive)
HCC 2998
  GI50: > 100 µM (inactive)
SK-MEL-5
  GI50: > 100 µM (inactive)
SF-268
  GI50: > 100 µM (inactive)
OVCAR-3
  GI50: > 100 µM (inactive)
Malme-3M
  GI50: > 100 µM (inactive)
SK-MEL-2
  GI50: > 100 µM (inactive)
KM12
  GI50: > 100 µM (inactive)
KM-20L2
  GI50: > 100 µM (inactive)
HL-60
  GI50: > 100 µM (inactive)
UACC-62
  GI50: > 100 µM (inactive)
UO-31
  GI50: > 100 µM (inactive)
NCI-H23
  GI50: > 100 µM (inactive)
786-0
  GI50: > 100 µM (inactive)
LXFL 529
  GI50: > 100 µM (inactive)
SNB-78
  GI50: > 100 µM (inactive)
A549
  GI50: > 100 µM (inactive)
A498
  GI50: > 100 µM (inactive)
HCT-15
  GI50: > 100 µM
HCT-116
  GI50: > 100 µM (inactive)
SNB-19
  GI50: > 100 µM (inactive)
OVCAR-4
  GI50: > 100 µM (inactive)
M19-MEL
  GI50: > 100 µM (inactive)
SNB-75
  GI50: 92.3 µM (inactive)
HOP-62
  GI50: > 100 µM (inactive)
NCI-H522
  GI50: > 100 µM (inactive)
M14
  GI50: 25.5 µM (inactive)
OVCAR-8
  GI50: > 100 µM (inactive)
